Key:
[1] = biological target: gabapentin binding site; assay: Binding assay: displacement of gabapentin from its binding site
Procedure: Gabapentin was used in a binding assay in order to check the binding and affinities of the selected compounds. The affinity of the compounds according to the invention was measured via the displacement of gabapentin from its binding site.

[2] = system: male albino mice (NMRI), formalin-induced nociception; assay: Formalin test on mice (second phase); assay type: in vivo, mouse
Procedure: The investigations to determine the antinociceptive action of the compounds according to the invention were carried out by the formalin test on male albino mice (NMRI, 25-35 g, Iffa Credo, Belgium).
In the formalin test the first (early) phase (0-15 minutes after the formalin injection) and the second (late) phase (15-60 minutes after the formalin injection) differ (D. Dubuisson et al., Pain, Vol. 4, pp. 161-174 (1977)). The early phase, being a direct reaction to the formalin injection, constitutes a model for acute pain, whereas the late phase is regarded as a model for persistent (chronic) pain (T. J. Coderre et al., Pain, Vol. 52, pp. 259-285 (1993)).
The compounds according to the invention were investigated in the second phase of the formalin test in order to obtain information on the effects of substances in chronic/inflammatory pain. By means of a single subcutaneous formalin injection (20 μl, 1% aqueous solution) into the dorsal side of the right-hand rear paw, a nociceptive reaction was induced in unconstrained experimental animals, manifested in a noticeable licking and biting of the affected paw.
The nociceptive behavior for the test period in the second (late) phase of the formalin test was continuously monitored by observing the animals. The pain reaction was quantified by totaling the time in seconds during which the animals continued to lick and bite the affected paw during the investigation period. After injecting substances that have an antinociceptive effect in the formalin test, the aforedescribed behavior pattern of the animals is reduced or possibly even cancelled.
Corresponding to the substance tests, in which the animals had been injected with the test substance before formalin, the control animals were injected with a vehicle, i.e. solvent (e.g. 0.9% NaCl solution) before the formalin injection. […]
Based on the quantification of the pain reaction, the effect of the substance in the formalin test was determined as the change in the control in percentage terms. […]

[3] = system: male Sprague-Dawley rats with L5/L6 spinal nerve ligatures; assay: In vivo experiments according to Chung (spinal nerve ligation, tactile withdrawal threshold); parameters: species or system rat; settings: further investigation
Procedure: In male Sprague-Dawley rats spinal nerve ligatures were applied according to Kim and Chung (1992) to the left L5/L6 spinal nerves. At the same time spinal catheters were implanted according to Pogatzki et al. ^6 (2000). 4 to 6 days after the operation the tactile threshold baseline (withdrawal thresholds) was measured on the ipsilateral and contra lateral rear paw by an electronic vonFrey anaesthesiometer (IITC Life Science, USA). […] After the test and baseline measurement, gabapentin and substances according to the invention were administered. The tactile withdrawal thresholds were measured 30 minutes after administration. The results are expressed as ED50 and % maximal possible effect (% MPE; % of the maximal possible effect) on the ipsilateral side, in which the baseline is taken as 0% and the withdrawal threshold of a control group is taken as 100% MPE.

- IC50 ([1]; displacement of gabapentin from its binding site): 779 nM
- Percent inhibition ([1]; inhibition/displacement of gabapentin, concentration 10^−5 μM [sic]): 75%
SMILES: N/C(=N\S(=O)(=O)c1ccc(Cl)cc1)NCc1ccccn1 [Example 21, N-{amino-[(pyridin-2-yl-methyl)-amino]-methylene}-4-chlorobenzenesulfonamide]
- ED50 ([2]; Mus musculus, second (late) phase of the formalin test, read-out: Formalin Test on Mice - ED50): 97 mg/kg
- inhibition of the formalin-induced nociception ([2]; result in words): exhibited an inhibition of the formalin-induced nociception
- ED50 ([3]; Rattus norvegicus, read-out:, table title: Analgesia testing in rats according to Chung): 13.3 mg/kg
- effect compared with gabapentin ([3]; rats, Chung test, result in words): superior in their effect to gabapentin
- effect in the Chung test ([3]; rats, result in words): show an effect
